Measured values: the Kinase Knowledgebase extract (Sharma et al. 2016)

How the values were obtained:
[1] = target: CDK2 (human) (UniProt P24941); experiment: Cell-Based Assay
[2] = target: CDK2 (UniProt P24941); experiment: Enzyme Assay

SMILES | IC50 ([1]; hct 116) [µM] | IC50 [2] [µM] | IC50 ([1]; sw480) [µM] | IC50 ([1]; mda-mb-435) [µM]
Cc1ccsc1-c1[nH]nc2c1N=C(c1ccccc1Cl)c1cc([N+](=O)[O-])ccc1N2 | 10 to 30 | 0.01 to 0.99 | – | –
O=[N+]([O-])c1ccc2c(c1)C(c1ccccc1Cl)=Nc1c(n[nH]c1-c1cc3ccccc3[nH]1)N2 | 10 to 30 | 1 to 9.99 | 10 to 30 | –
CCOC(=O)c1[nH]nc2c1N=C(c1ccccc1Cl)c1cc([N+](=O)[O-])ccc1N2 | – | 1 to 9.99 | – | 10 to 30
Cc1[nH]nc2c1N=C(c1ccccc1)c1cc(I)ccc1N2 | – | 1 to 9.99 | 10 to 30 | –
O=[N+]([O-])c1ccc2c(c1)C(c1ccccc1Cl)=Nc1c(n[nH]c1CCc1ccccc1)N2 | 10 to 30 | 1 to 9.99 | 10 to 30 | 10 to 30
Cc1ccccc1-c1[nH]nc2c1N=C(c1ccccc1Cl)c1cc([N+](=O)[O-])ccc1N2 | 10 to 30 | 1 to 9.99 | 10 to 30 | –
O=[N+]([O-])c1ccc2c(c1)C(c1ccccc1Cl)=Nc1c(n[nH]c1Cc1ccccc1)N2 | 10 to 30 | 1 to 9.99 | 10 to 30 | 10 to 30
Fc1ccc2c(c1)C(c1ccccc1F)=Nc1c[nH]nc1N2 | – | 1 to 9.99 | 10 to 30 | –
O=[N+]([O-])c1ccc2c(c1)C(c1ccccc1Cl)=Nc1c(n[nH]c1-c1ccc(-n3cccc3)cc1)N2 | 10 to 30 | 10 to 30 | – | –
O=[N+]([O-])c1ccc2c(c1)C(c1ccccc1Cl)=Nc1c(n[nH]c1-[n+]1ccc[nH]1)N2 | – | 0.01 to 0.99 | – | 10 to 30
Nc1ccc2c(c1)C(c1ccccc1Cl)=Nc1c[nH]nc1N2 | 10 to 30 | 1 to 9.99 | 10 to 30 | 10 to 30
O=[N+]([O-])c1ccc2c(c1)C(c1ccccc1Cl)=Nc1c(n[nH]c1-c1cc3ccccc3o1)N2 | 10 to 30 | 1 to 9.99 | – | –
O=[N+]([O-])c1ccc2c(c1)C(c1ccccc1Cl)=Nc1c(n[nH]c1-c1cccc(C(F)(F)F)c1)N2 | 10 to 30 | 10 to 30 | – | –
O=[N+]([O-])c1ccc2c(c1)C(c1ccccc1Cl)=Nc1c(n[nH]c1-c1cccs1)N2 | 10 to 30 | 0.01 to 0.99 | 10 to 30 | –
c1ccc(C2=Nc3c[nH]nc3Nc3ccccc32)cc1 | 10 to 30 | 1 to 9.99 | 10 to 30 | –
O=[N+]([O-])c1ccc2c(c1)C(c1ccccc1Cl)=Nc1c(n[nH]c1-c1ccccc1C(F)(F)F)N2 | – | 10 to 30 | 10 to 30 | –
Cc1ccc(-c2[nH]nc3c2N=C(c2ccccc2Cl)c2cc([N+](=O)[O-])ccc2N3)s1 | – | 1 to 9.99 | – | –
O=[N+]([O-])c1ccc2c(c1)C(c1ccccc1)=Nc1c(n[nH]c1-c1ccccc1F)N2 | – | 10 to 30 | – | –
CCOc1cccc(-c2[nH]nc3c2N=C(c2ccccc2Cl)c2cc([N+](=O)[O-])ccc2N3)c1 | – | 1 to 9.99 | – | –
CN(C)C(=O)c1[nH]nc2c1N=C(c1ccccc1Cl)c1cc([N+](=O)[O-])ccc1N2 | – | 1 to 9.99 | – | –
CS(=O)(=O)c1ccc2c(c1)C(c1ccccc1)=Nc1c[nH]nc1N2 | 10 to 30 | 1 to 9.99 | – | –
N#Cc1cccc(-c2[nH]nc3c2N=C(c2ccccc2Cl)c2cc([N+](=O)[O-])ccc2N3)c1 | – | 1 to 9.99 | – | –
O=[N+]([O-])c1ccc2c(c1)C(c1ccccc1Cl)=Nc1c(n[nH]c1-c1ccsc1)N2 | – | 0.01 to 0.99 | – | –
O=[N+]([O-])c1ccc2c(c1)C(c1ccccc1)=Nc1c(n[nH]c1-c1cccnc1)N2 | – | 1 to 9.99 | – | –
Clc1ccc2c(c1)C(c1ccccc1Cl)=Nc1c[nH]nc1N2 | – | 10 to 30 | – | –
O=[N+]([O-])c1ccc2c(c1)C(c1ccccc1Cl)=Nc1c(n[nH]c1-[o+]1ccnn1)N2 | – | 10 to 30 | – | 10 to 30
Fc1ccccc1C1=Nc2c[nH]nc2Nc2ccccc21 | 10 to 30 | 1 to 9.99 | 10 to 30 | –
CCc1ccc(-c2[nH]nc3c2N=C(c2ccccc2Cl)c2cc([N+](=O)[O-])ccc2N3)o1 | – | 1 to 9.99 | – | –
O=[N+]([O-])c1ccc2c(c1)C(c1ccccc1Cl)=Nc1c(n[nH]c1-c1cccc(Oc3ccccc3)c1)N2 | – | 10 to 30 | – | –
